Results from US8153689B2, “Pleuromutilin derivatives for the treatment of diseases mediated by microbes” (Nabriva Therapeutics AG, priority 2007, dated 2012).

System: primary human hepatocytes
Test: Metabolic stability in cryopreserved primary human hepatocytes
Assay type: in vitro ADME
Conditions: 4 h incubation with human hepatocytes, compound concentration 5 μg/mL, 37° C., LC/MS
Procedure: The metabolic stability for compounds of the present invention was determined by using cryopreserved primary human hepatocytes. 1×10^6 cells/mL were incubated in the absence and the presence of 5 and 25 μg/mL of the test compounds at 37° C., 5% CO2 for 4 hours. To evaluate the in vitro degradation under assay conditions, a sample of each test compound was incubated also in the absence of hepatocytes. The incubation was stopped by freezing the reaction mixture. After ultrafiltration and washing of the filter with acetonitrile, the sample solution was analyzed for parent compound disappearance or metabolite appearance using LC/MS (ion trap). The metabolic stability value corresponds to the detected parent compound in % after incubation.

14-O-{[(1R, 3R)-3-Amino-cyclohexylsulfanyl]-acetyl}-mutilin hydrochloride and the (1S, 3S)diastereomer hydrochloride thereof
metabolic stability value: detected parent compound in % after incubation: 24%

C=CC1(C)CC(OC(=O)CSC2CC(N)CCC2O)C2(C)C(C)CCC3(CCC(=O)C32)C(C)C1O.Cl (mixture of isomers) [Example 2, 14-O-{[(1R, 2R, 5S)-5-Amino-2-hydroxy-cyclohexylsulfanyl]-acetyl}-mutilin hydrochloride+(1S, 2S, 5R)diastereomer hydrochloride]
metabolic stability value: detected parent compound in % after incubation: 66%
